# Counter-ions that a name gives are not always drawn.
# Biological target: BTK (Homo sapiens (Human), UniProt Q06187)
# Experiment: In Vitro BTK Kinase Assay: Btk-PolyGAT-LS Assay
# Type: biochemical
# Settings: active BTK enzyme 0.25 nM, ATP 10 μM, polyGAT 100 nM, 30 minutes
# Procedure: In Vitro BTK Kinase Assay: Btk-PolyGAT-LS Assay
# The purpose of the BTK in vitro assay is to determine compound potency against BTK through the measurement of IC50. […] The BTK kinase reaction was done in a black 96 well plate (costar 3694). For a typical assay, a […] aliquot of a ATP/peptide master mix (final concentration; ATP 10 μM, polyGAT 100 nM) in kinase buffer (10 mM Tris-HCl pH 7.5, 10 mM MgCl2, 200 μM […], 5 mM DTT, 0.01% Triton X-100, and 0.2 mg/ml casein) is added to each well. Next, […] of a 4-fold, 40× compound titration in 100% DMSO solvent is added, followed by adding 15 uL of BTK enzyme mix in 1× kinase buffer (with a final concentration of 0.25 nM). The assay is incubated for 30 minutes before being stopped with […] of a 50 mM EDTA solution. Aliquots (5 uL) of the kinase reaction are transferred to a low volume white 384 well plate (Corning 3674), and […] of a 2× detection buffer (Invitrogen PV3574, with 4 nM Tb-PY20 antibody, Invitrogen PV3552) is added. The plate is covered and incubated for 45 minutes at room temperature. Time resolved fluorescence (TRF) on Molecular Devices M5 (332 nm excitation; 488 nm emission; 518 nm fluorescein emission) is measured.
# BTK, sequence (Q06187 whole entry): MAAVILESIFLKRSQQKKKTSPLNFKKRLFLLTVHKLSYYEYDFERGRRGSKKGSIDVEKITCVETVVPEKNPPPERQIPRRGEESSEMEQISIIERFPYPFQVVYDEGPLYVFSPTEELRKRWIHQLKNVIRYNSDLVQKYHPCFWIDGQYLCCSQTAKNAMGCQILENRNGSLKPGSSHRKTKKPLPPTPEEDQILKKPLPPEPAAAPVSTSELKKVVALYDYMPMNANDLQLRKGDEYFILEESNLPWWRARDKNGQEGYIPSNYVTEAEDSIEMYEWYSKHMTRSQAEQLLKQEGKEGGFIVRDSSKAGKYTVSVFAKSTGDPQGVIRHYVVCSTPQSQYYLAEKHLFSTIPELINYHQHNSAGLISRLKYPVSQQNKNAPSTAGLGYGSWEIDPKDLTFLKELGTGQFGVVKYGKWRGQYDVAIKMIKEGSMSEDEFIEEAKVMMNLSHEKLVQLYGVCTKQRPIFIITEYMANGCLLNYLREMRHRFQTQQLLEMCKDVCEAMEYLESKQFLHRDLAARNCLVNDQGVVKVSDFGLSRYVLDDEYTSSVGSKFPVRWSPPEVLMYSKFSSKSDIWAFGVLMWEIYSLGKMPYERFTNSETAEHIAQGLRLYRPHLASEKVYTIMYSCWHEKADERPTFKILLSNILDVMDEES
row,Structure (SMILES),IC50 [nM]
1,"Cn1cc(-c2cc3c(-c4ccc(CNC(=O)c5nc(C(C)(C)C)no5)c(CC(F)F)c4F)ncnn3c2)cn1 [Example 66, 3-(tert-butyl)-N-(2-(2,2-difluoroethyl)-3-fluoro-4-(6-(1-methyl-1H-pyrazol-4-yl)pyrrolo[2,1-f][1,2,4]triazin-4-yl)benzyl)-1,2,4-oxadiazole-5-carboxamide hydrochloride]",≤ 1
2,Cc1cc(-c2ncnn3cc(-c4ccc(C#N)cc4)cc23)ccc1CNC(=O)c1noc(C(C)(C)C)n1 [Example 225],≤ 1
3,Cc1cc(-c2c(C#N)cnn3cccc23)ccc1CNC(=O)c1noc(C(C)(C)C)n1 [Example 53],> 10
4,CC(C)(C)n1ccc(C(=O)NCc2ccc(-c3ncnn4cc(N5CCOCC5)cc34)c(F)c2Cl)n1 [Example 158],1 to 10
5,Cc1cc(-c2ncnn3cc(-c4cn[nH]c4)cc23)ccc1CNC(=O)c1noc(C(C)(C)C)n1 [Example 85],≤ 1
6,Cc1c(CNC(=O)c2noc(C(C)(C)C)n2)ccc(-c2ncnn3cc(-c4cnn(C)c4)cc23)c1F [Example 112],≤ 1
7,CC(C)(C)c1noc(C(=O)NCc2ccc(-c3ncnn4cccc34)c(F)c2C2CC2)n1 [Example 153],1 to 10
8,"Cc1cc(-c2ccnc3cc(N4CCOCC4)nn23)ccc1CNC(=O)c1noc(C(C)(C)C)n1 [Example 22, 5-(tert-butyl)-N-(2-methyl-4-(2-morpholinopyrazolo[1,5-a]pyrimidin-7-yl)benzyl)-1,2,4-oxadiazole-3-carboxamide]",1 to 10
9,COCCN(C)c1cc2c(-c3ccc(CNC(=O)c4noc(C(C)(C)C)n4)c(C)c3)ncnn2c1 [Example 174],≤ 1
10,Cc1cc(-c2ncnn3cc(-c4cnn(C)c4)cc23)ccc1CNC(=O)c1nnn(C(C)(C)C)n1 [Example 113],≤ 1
11,CC(C)(C)n1cc(C(=O)NCc2ccc(-c3ncnn4cc(N5CCOCC5)cc34)c(F)c2C2CC2)nn1 [Example 164],1 to 10
12,CC(C)(C)c1cc(C(=O)NCc2cc(F)c(-c3ncnn4cccc34)cc2Cl)no1 [Example 135],> 10
13,CC(C)(C)c1nnc(C(=O)NCc2ccc(-c3ncnn4cc(N5CCOCC5)cc34)c(F)c2C2CC2)o1 [Example 163],1 to 10
14,CC(C)(C)c1nnc(C(=O)NCc2ccc(-c3ncnn4cc(C5=CCOCC5)cc34)cc2C(F)F)o1 [Example 213],1 to 10
15,Cn1cc(-c2cc3c(-c4ccc(CNC(=O)c5cn(C(C)(C)C)nn5)c(C(F)F)c4F)ncnn3c2)cn1 [Example 195],1 to 10
16,"Cc1cc(-c2ncnn3cc(C4=CCOCC4)cc23)ccc1CNC(=O)c1cnc(C(C)(C)C)o1 (single isomer, unassigned) [Example 125]",≤ 1
17,"Cc1cc(-c2ncnn3cccc23)ccc1CNC(=O)c1coc(C(C)(F)F)n1 [Example 20, 2-(1,1-difluoroethyl)-N-(2-methyl-4-(pyrrolo[2,1-f][1,2,4]triazin-4-yl)benzyl)oxazole-4-carboxamide trifluoroacetate]",> 10
18,CC(C)(C)n1cc(C(=O)NCc2ccc(-c3ncnn4cc(N5CCOCC5)cc34)c(F)c2Cl)cn1 [Example 155],≤ 1
19,Cc1cc(-c2ncnn3cc(-c4cnn(C)c4C)cc23)ccc1CNC(=O)c1nnn(C(C)(C)C)n1 [Example 129],≤ 1
20,"Cc1cc(-c2ccnn3ccnc23)ccc1CNC(=O)c1noc(C(C)(C)C)n1 [Example 21, 5-(tert-butyl)-N-(4-(imidazo[1,2-b]pyridazin-8-yl)-2-methylbenzyl)-1,2,4-oxadiazole-3-carboxamide trifluoroacetate]",1 to 10
21,Cc1cc(-c2ncnn3cc(N4CC5CC(C4)N5C)cc23)ccc1CNC(=O)c1noc(C(C)(C)C)n1 [Example 148],1 to 10
22,CC=CC(=O)n1cc(-c2cc3c(-c4ccc(CNC(=O)c5noc(C(C)(C)C)n5)c(C)c4)ncnn3c2)cn1 [Example 147],≤ 1
23,"Cc1cc(-c2ncnn3cc(N4CCN(C)CC4)cc23)ccc1CNC(=O)c1nc(C(C)(C)C)no1 [Example 69, 3-(tert-butyl)-N-(2-methyl-4-(6-(4-methylpiperazin-1-yl)pyrrolo[2,1-f][1,2,4]triazin-4-yl)benzyl)-1,2,4-oxadiazole-5-carboxamide]",≤ 1
24,Cc1c(CNC(=O)c2nc(C(C)(C)C)no2)ccc(-c2ccnc3cc(-c4cnn(C)c4)nn23)c1F [Example 83],≤ 1
25,Cc1cc(-c2ncnn3cccc23)ccc1CNC(=O)c1cn(C(C)(C)C)nn1 [Example 184],> 10
26,Cc1cc(-c2ncnn3cc(-c4ccc(F)cc4)cc23)ccc1CNC(=O)c1noc(C(C)(C)C)n1 [Example 224],≤ 1

row,Structure (SMILES),IC50 [nM]
1,Cc1c(CNC(=O)c2ccn(C(C)(C)C)n2)ccc(-c2ncnn3cc(N4CCOCC4)cc23)c1F [Example 89],1 to 10
2,"Cc1cc(-c2ncnn3cc(N4CCO[C@@H](C)C4)cc23)ccc1CNC(=O)c1noc(C(C)(C)C)n1 (single isomer, unassigned) [Example 29]",≤ 1
3,Cc1c(CNC(=O)c2noc(C(C)(C)C)n2)ccc(-c2ncnn3cccc23)c1F [Example 218],≤ 1
4,Cc1cc(-c2ncnn3cc(-c4cnn(C)c4)cc23)ccc1CNC(=O)c1nnc(C(C)(C)C)o1 [Example 165],≤ 1
5,Cc1cc(-c2cc3c(-c4ccc(CNC(=O)c5noc(C(C)(C)C)n5)c(C)c4)ncnn3c2)cnn1 [Example 170],≤ 1
6,COC1CN(C(=O)c2cc3c(-c4ccc(CNC(=O)c5noc(C(C)(C)C)n5)c(C)c4)ncnn3c2)C1 [Example 217],≤ 1
7,"C#Cc1cc2c(-c3ccc(CNC(=O)c4noc(C(C)(C)C)n4)c(C)c3)ncnn2c1 [Example 76, 5-(tert-butyl)-N-(4-(6-ethynylpyrrolo[2,1-f][1,2,4]triazin-4-yl)-2-methylbenzyl)-1,2,4-oxadiazole-3-carboxamide trifluoroacetate]",1 to 10
8,"Cc1cc(-c2ncnn3cc(N4CC(CO)(CO)C4)cc23)ccc1CNC(=O)c1noc(C(C)(C)C)n1 [Example 73, N-(4-(6-(3,3-bis(hydroxymethyl)azetidin-1-yl)pyrrolo[2,1-f][1,2,4]triazin-4-yl)-2-methylbenzyl)-5-(tert-butyl)-1,2,4-oxadiazole-3-carboxamide]",≤ 1
9,"Cc1cc(-c2ncnn3cc(N4CC[C@@H](F)C4)cc23)ccc1CNC(=O)c1noc(C(C)(C)C)n1 (single isomer, unassigned) [Example 142]",≤ 1
10,Cc1cc(-c2ncnn3cc(-c4cn(C)nc4C)cc23)ccc1CNC(=O)c1noc(C(C)(C)C)n1 [Example 108],≤ 1
11,CC(C)(C)c1noc(C(=O)NCc2ccc(-c3ncnn4cc(N5CCOCC5)cc34)cc2C(F)(F)F)n1 [Example 186],≤ 1
12,CC(C)(C)n1cc(C(=O)NCc2ccc(-c3ncnn4cc(N5CCOCC5)cc34)cc2C(F)(F)F)nn1 [Example 187],≤ 1
13,CC(C)(C)c1noc(C(=O)NCc2cc(F)c(-c3ncnn4cccc34)cc2Cl)n1 [Example 133],1 to 10
14,CC(C)(C)n1cc(C(=O)NCc2ccc(-c3ncnn4cc(N5CCOCC5)cc34)cc2C2CC2)nn1 [Example 205],1 to 10
15,Cc1cc(-c2ncnn3cc(-c4cnsc4)cc23)ccc1CNC(=O)c1noc(C(C)(C)C)n1 [Example 172],> 10
16,Cn1cc(-c2cc3c(-c4ccc(CNC(=O)c5nnc(C(C)(C)C)o5)c(C(F)F)c4F)ncnn3c2)cn1 [Example 196],≤ 1
17,COc1c(CNC(=O)c2nnc(C(C)(C)C)o2)ccc(-c2ncnn3cc(-c4cnn(C)c4)cc23)c1F [Example 201],1 to 10
18,"Cc1cc(-c2ncnn3cc(OC4CCOCC4)cc23)ccc1CNC(=O)c1noc(C(C)(C)C)n1 [Example 79, 5-(tert-butyl)-N-(2-methyl-4-(6-((tetrahydro-2H-pyran-4-yl)oxy)pyrrolo[2,1-f][1,2,4]triazin-4-yl)benzyl)-1,2,4-oxadiazole-3-carboxamide]",1 to 10
19,"Cc1cc(-c2ncnn3cc(N4CCN(C)[C@H](C)C4)cc23)ccc1CNC(=O)c1nc(C(C)(C)C)no1 (single isomer, unassigned) [Example 27]",≤ 1
20,Cc1cc(-c2ncnn3cc(C4CCN(C)C4)cc23)ccc1CNC(=O)c1noc(C(C)(C)C)n1 (stereo not shown) [Example 149],1 to 10
21,Cc1cc(-c2ncnn3ccnc23)ccc1CNC(=O)c1noc(C(C)(C)C)n1 [Example 52],1 to 10
22,Cc1cc(-c2ncnn3cc(N4CCN5CC(F)(F)C[C@H]5C4)cc23)ccc1CNC(=O)c1nc(C(C)(C)C)no1 [Example 123],≤ 1
23,"Cc1cc(-c2ncnn3cc(N4CCN(C)[C@@H](C)C4)cc23)ccc1CNC(=O)c1noc(C(C)(C)C)n1 (single isomer, unassigned) [Example 116]",≤ 1
24,"CC(C)(C)c1nc(C(=O)NCc2ccc(-c3ncnn4cccc34)c(F)c2C2CC2)no1 [Example 62, 5-(tert-butyl)-N-(2-cyclopropyl-3-fluoro-4-(pyrrolo[2,1-f][1,2,4]triazin-4-yl)benzyl)-1,2,4-oxadiazole-3-carboxamide trifluoroacetate]",1 to 10
25,Cc1cc(-c2ncnn3ccc(C)c23)ccc1CNC(=O)c1noc(C(C)(C)C)n1 [Example 49],1 to 10
26,CC(C)(C)c1noc(C(=O)NCc2ccc(-c3ncnn4cc(N5CCOCC5)cc34)cc2C2CC2)n1 [Example 206],≤ 1

# Reference: US12391697B2, “Condensed bi-heterocycles as inhibiting agents for Bruton's tyrosine kinase” (BIOGEN MA INC., priority 2019, dated 2025)
